Experimental data: a melting point compilation (Tetko et al.; mined from patent text by program, amines drawn as free bases though some values may be those of a salt)

melting point [°C]	Compound
150 to 151	O=C(NCC1CCCCC1)c1c(Cl)ccc2nc(N3CC(NCCO)C3)ccc12
206 to 207	Cn1c(=O)c(-c2ccccc2Cl)cc2cnc(NC3CCS(=O)(=O)CC3)nc21
161 to 162	CCN(Cc1sc(-c2ccc(C(F)(F)F)cc2)nc1C)c1cc(C)c(OCC(=O)O)c(C)c1
134	CC(C)c1nc(N(C)S(C)(=O)=O)nc(-c2ccc(F)cc2)c1/C=C/C#N
111 to 112	CC(C)(C)[Si](C)(C)OC1CCN(S(=O)(=O)c2ccc(N3CCCCC3)cc2)C1=O (stereo not given)
190 to 193	CCNc1cc(Nc2ccc(OC)cc2)ncn1
120 to 122	CCCC(O)c1cc(-c2ccc(C(F)(F)F)n(C)c2=O)c(F)cc1Cl (stereo not given)
115 to 116	CN(C)c1ccc2c(c1)C(=O)N(c1ccc(CCCC(=O)OC(C)(C)C)cc1)C2
372 to 375	O=C(O)c1ccc2c(c1)C(=O)c1cc(C(=O)O)ccc1S2(=O)=O
101 to 103	C=CCc1ccc(O)c(-c2cc(CC=C)ccc2O)c1
140 to 145	CC(CC(F)(F)F)C(=O)Nc1cnn(-c2cccnc2)c1 (stereo not given)
173 to 174	Cc1oc(-c2ccccc2)nc1COc1ccccc1COc1ccc(CC(=O)O)cc1
164 to 166	O=C(OCCc1ccccc1)c1ccc2c(O)c(O)ccc2c1
232 to 235	O=C1CCC(=O)N1c1ccncc1
91 to 92	Clc1ccc(Cn2cc(C3(Cn4ccnc4)CCCC3)c3ccccc32)cc1
217 to 219	Cc1nc(C)c(-c2ccnc(Nc3ccc(NC(=O)CCl)cc3)n2)s1
258 to 262	CC(=O)Nc1cccc2c1NC(=O)C2c1ccccc1 (stereo not given)
197 to 199	CC(=O)NN1CC(C)=NNC1=O
188 to 190	Cc1ccc(Nc2nc(CO)cs2)c(O)c1
86 to 86.5	CC(=O)c1cc([N+](=O)[O-])c(Cl)c([N+](=O)[O-])c1
106 to 110	OCCC1(c2ccccc2)CCNC1 (stereo not given)
70.5 to 71.2	CC(C)(C)OC(=O)NCCc1ccnc(C#N)c1
149 to 150	CC(CO)(CCCCN1C(=O)c2ccccc2C1=O)c1ccccc1 (stereo not given)
214 to 215	O=C1c2ccccc2C(=O)N1CCCSC1N=CC=CN1NC(=S)NCC(F)(F)F (stereo not given)
160	CC(=O)Oc1c(C(C)(C)C)cc2oc(C=O)cc2c1C(C)(C)C

melting point [°C]	Compound
137 to 139	FC(F)(F)c1cccc(C2=NN3CCN=C3C=C2)c1
174 to 176	CCCCCCCCCCn1c(=O)n(C2OC(CO)C(O)C2O)c2nc(N)[nH]c(=O)c21 (stereo not given)
91 to 95	CS(=O)(=O)c1ccc(C(CC2CCCC2)C(=O)Nc2ccncn2)cc1[N+](=O)[O-] (stereo not given)
215 to 218	CCN1C(=O)C(C)(C)C(=O)Nc2cc(C#N)ccc21
83 to 86	CCOc1ccccc1O[C@@H](c1ccccc1)[C@@H](CO)OS(C)(=O)=O (racemic)
90 to 91	Cc1cccc(-c2nnc(-c3ccccc3Cc3ccccc3)nn2)c1
120 to 122	CCOC(=O)CN1C(=O)COc2cc([N+](=O)[O-])ccc21
217 to 218	CCOC(=O)c1cn(-c2cc(N(C)C(=O)OC(C)(C)C)c(F)cc2F)c2c(C)c(F)c(F)cc2c1=O
151	CN(C)c1ncc(-c2ccc(Cl)cc2Cl)c(N)n1
138 to 140	COC(=O)N1CC(Cc2ccc(OC)c(OC3CCCC3)c2)N(C(=O)OC)C1=O (stereo not given)
273 to 275	CCc1c2nc(-c3cc(S(C)(=O)=O)ccc3OCC(C)C)[nH]c(=O)c2nn1C1CCN(C(C)C)CC1
111 to 113	N#CCc1ccc(CN2CCN(c3ccc(F)cc3)CC2)cc1
86 to 87	CN(C)C(=O)c1ccc2ccccc2c1-c1ccccc1
90 to 92	NS(=O)(=O)c1ccc(OC2CCCCO2)s1 (stereo not given)
145 to 147	CCCNCc1cnc(-c2ncn3c2[C@@H]2CCN2C(=O)c2sccc2-3)o1
153 to 156	COc1ccc(COC(=O)NC(C(=O)O)c2cccs2)cc1 (stereo not given)
113 to 114	CC(C)(C)OC(=O)NCCON=C(C(=O)O)c1cccs1
177 to 178	O=C(Nc1ccc(-n2nc(C(F)(F)F)cc2C(F)(F)F)cc1)C1CC=CCC1 (stereo not given)
119 to 125	CC(C)OC(=O)Cn1c(=O)n(C)c(=O)n(-c2cc(N3C(=O)c4cccc(F)c4C3=O)c(F)cc2Cl)c1=O
82	CC(O)Cn1c(COC(N)=O)nc(C(C)C)c1Sc1cc(Cl)cc(Cl)c1 (stereo not given)
187 to 188	CCc1cnc2c(NC(=O)c3c(Cl)cccc3Cl)cccc2c1CCBr
114 to 116	CCCC(=O)c1cnc2c(C3CO3)cccc2c1Nc1ccccc1C (stereo not given)
129	Cc1ccc(CCN2CCN(c3nsc4ccccc34)CC2)c2c1C(C)(C)CC(=O)N2
116 to 117	COc1cc(Nc2nccc(-c3ccc(N4CCN(CCCO)CC4)nc3)n2)cc(OC)c1OC
200 to 201	CCC(C)(NC(=O)C1=C(C(=O)Nc2cc(OC3CCCC3)c(Cl)cc2F)CCCC1)c1ccc(Cl)cc1 (stereo not given)

melting point [°C]	Compound
140 to 142	Cc1cc2c(cc1Oc1nnnn1-c1ccccc1)[C@@H](c1ccccc1)CN(C)CC2
97 to 98	CC(C)N1CC2CC(CN(C(=O)c3ccc(Cl)cc3)C2)C1
141 to 142	CCOC(=O)c1sc2cc(OCc3ccccc3)ccc2c1S(=O)c1ccccc1 (stereo not given)
99 to 100	COC[C@H](C1CC1)n1cc(Cl)nc(Nc2cc(C)c(OC)nc2C)c1=O
210 to 215	CC(=O)NCc1cn(-c2ccc(-n3cccc3)c(F)c2)nn1
175 to 177	CN1C(=O)C=C[C@]2(C)c3ccc(-c4cccc([N+](=O)[O-])c4)cc3CC[C@@H]12
148 to 150	CC(C)(C)OC(=O)NNc1ccc2ccccc2n1
110 to 112	O=C1C(=O)c2ccccc2C2=C1SCC1(CCN(C(=O)c3cc4ccccc4s3)CC1)O2
118	CCCCCC1CCC2c3ccc(OCC)c(F)c3OC2C1 (stereo not given)
163 to 164	CCCSc1sc(C(N)=O)c2c1-c1[nH]ncc1CC2
119 to 121	N#CCCCCn1c(=O)c2ccccc2n(CCCCN2CCC(OC(c3ccccc3)c3ccccc3)CC2)c1=O
105 to 107	CN(C)S(=O)(=O)Oc1ccc(-c2ccccc2)cc1
118 to 119	COc1cc2c(cc1OCc1ccccc1)CCNC2c1ccccc1 (stereo not given)
112	CCCCOc1cc(/C=C(\OCC)C(=O)O)ccc1OCCc1ccc(OS(C)(=O)=O)cc1OC
192	O=C(O)C=Cc1cc(Oc2c(Cl)cc(C(F)(F)F)cc2Cl)ccc1[N+](=O)[O-]
> 300	O=c1c2cc(Br)ccc2c2cc3c(=O)c4cc(Br)ccc4c3cc12
143 to 146	Nc1cn(-c2cccnc2)nc1Br
151 to 153	O=C1CCCN1[C@@H]1c2ccccc2OCC[C@H]1O (relative stereo)
204 to 206	COc1ccc2c(c1)C(Oc1ccccc1)=C(C(=O)O)S2=O (stereo not given)
119 to 121	Oc1ccccc1OCC1CCN(CC(O)COc2cccc3[nH]ccc23)CC1 (stereo not given)
102 to 108	O=c1c(Br)c(O)ccn1Cc1ccc(O)cc1
273 to 274	O=C1CS(=O)(=O)C(C(=O)Nc2ccc(Cl)cc2)Cc2cc3c(cc21)OCCO3 (stereo not given)
120 to 122	CC(C)Oc1cc(CCCOc2ccc3ccccc3c2CC(=O)O)n(Cc2ccc(Cl)cc2Cl)n1
105 to 110	CCC(=O)c1ccn(S(=O)(=O)c2ccccc2)c1C
200	O=C(O)C12CC(c3ccccc31)c1ccccc12

melting point [°C]	Compound
170 to 172	COC(=O)C1=C(C)NC(C#N)=C(C(=O)OC)C1c1ccccc1[N+](=O)[O-] (stereo not given)
88 to 90	O=C(O)C(Cc1ccc(OCCn2c(=O)sc3cc(C(=NO)C4CC4)ccc32)cc1)OCC(F)(F)F (stereo not given)
193 to 194	COC(=O)C1=NNC(C)=C(C(=O)OC)C1c1cc([N+](=O)[O-])ccc1Cl (stereo not given)
170 to 171	Cc1cccc(Nc2ccc(Nc3ncnc4cc(-c5ccccc5)sc34)cc2)c1
95 to 100	C=CC(=O)Oc1ccc(Cl)c2c(N(C)C)ncnc12
278 to 280	O=c1c[n+]([O-])c2cc(Cl)c(Cl)cc2[nH]1
220 to 221	CC(C)(C)OC(=O)N1CCn2c(c(C(N)=S)c(Cl)c2-c2cccnc2)C1
108 to 109	O=CNc1ccc(-c2c[nH]cn2)cc1
236 to 237	C[C@@H]1Nc2nc(Cl)ccc2NC1=O
113 to 114	COc1ccc(CS[C@H]2C[C@@H](C(N)=O)N(C)C2)cc1
> 300	CCOC(=O)C(O)=CC(=O)c1c[nH]c2ccccc12
166 to 167	O=c1c2cnc(-c3ccccc3)nc2sn1Cc1ccccc1
227 to 242	COc1cc2c(cc1Nc1ncc(Cl)c(Nc3ccc(N4CCOCC4)cc3)n1)CCN(CC(=O)N(C)C)CC2
202	CCOC(=O)C1=C(COCCCc2nc3ccccc3n2C)NC(C)=C(C(=O)NC(C)(C)C)C1c1ccccc1Cl (stereo not given)
106 to 109	CON=C(c1ccc(Cl)cc1)C(CNOC)CN1CCN(c2ccccn2)CC1 (stereo not given)
210 to 211	CC1(C)C(=O)N(c2ccnc(N)c2)c2cccnc21
141 to 142	CC(=O)Oc1ccc(Cl)c2c(=O)c3ccccc3sc12
262 to 264	COc1ccc2[nH]c(-c3cccc(C)c3)cc(=O)c2c1
110 to 111	Cc1c(C(=O)O)oc2cc(OCCNC[C@H](O)COc3ccccc3)ccc12
137 to 138	COc1cc(COc2nn(-c3ccccc3)cc2CC#N)ccc1OCc1nc(-c2ccccc2)oc1C
138 to 139	COC(=O)c1ccc(-c2nc(-c3ccc(OC(F)(F)F)cc3)cs2)cc1
61 to 63	CC(Cl)C(=O)CCCCN1C(=O)c2ccccc2C1=O (stereo not given)

Compound	melting point [°C]
CCOC(=O)c1ccc(CC(C)NCC(O)c2ccc(O)c(CO)c2)cc1 (stereo not given)	92 to 96
CC(=O)NC(=N)NCC1CC2c3cccc4[nH]cc(c34)CC2N(C)C1 (stereo not given)	218 to 220
CCC1CC2CC(=O)OC3OC4(C)CCC(C1C)C23OO4 (single isomer, unassigned; (+))	155 to 157
